The values below come from US20230330021A1, “DRUG-LOADED POLYMER VESICLE HAVING ASYMMETRIC MEMBRANE STRUCTURE, PREPARATION METHOD THEREFOR, AND APPLICATION THEREOF IN PREPARATION OF DRUGS FOR TREATING ACUTE MYELOID LEUKEMIA” (SOOCHOW UNIVERSITY, priority 2020, published 2023).

Counter-ions that a name gives are not always drawn.

One test concerns YNH-1. As to the kind of experiment: Cell proliferation inhibition assay (CCK8 method). The settings on record: CD44-negative YNH-1. The format is cell-based. (Tetrazolium dyes change colour on reduction, which living cells bring about.)
For another test, the system named is OCI-AML-3. Kind of test: Cell proliferation inhibition assay (CCK8 method). The format is cell-based. The settings on record: CD44-negative OCI-AML-3.
Test [1] relates to MV4-11 cells. As to the kind of experiment: Apoptosis, AnnexinV/PI flow cytometry. The format is cell-based. The settings on record: VCR 10 ng/mL. As for the experimental part: A6-cPS-VCR-targeted polymer vesicle nanomedicine induces apoptosis and cell cycle: First, MV4-11 cells were plated in a 24-well plate at a density of 2 × 10^5 cells/well and cultured for 24 hours. 20 µL of A6-cPS-VCR, cPS-VCR or VCR (concentration of VCR was 10 ng/mL) was added, respectively, and 20 µL of PBS was added to the control group. After 4 hours of incubation, the supernatant was removed by centrifugation (3000 rpm, 10 minutes), then fresh RPMI-1640 complete medium was added, the cells were blown off and placed in the incubator for a further 44 hours. Cells were collected in a flow tube, centrifuged (800 rpm, 5 min) and washed twice with 4° C. cold PBS. Finally, 200 µL of binding buffer was added to resuspend the cells. After pipetting evenly, taken 100 µL of it into the flow tube, added 5 µL of AnnexinV-F647 and 10 µL of PI solution in sequence, and stain at room temperature for 15 minutes in the dark, then add 400 µL of PBS and mix evenly to stop the staining, and detection by a flow cytometer within 1 hour. Among them, the cells that were treated in a 50° C. water bath for 5 minutes and fixed with 4% paraformaldehyde for 5 minutes were added with 5 µL of AnnexinV-F647 solution and 10 µL of PI solution for staining for 15 minutes respectively. Cytometer for testing.

Test [2] has as its system MV4-11 cells. Kind of test: Cell cycle, PI flow cytometry. In kind it is cell-based. The settings on record: VCR 10 ng/mL. As to the method:
The cell culture and treatment of the cell cycle experiment of A6-cPS-VCR refer to the above method, and only add 1 mL of PBS to resuspend the cells at the end. Then, 4 mL of ice 95% ethanol was added to fix the cells for 12 hours, and 400 µL of PI staining solution was added for 30 minutes in the dark on a shaker at 37° C. Finally, the cells were tested by flow cytometry.
For orientation: A flow cytometer gives signals particle by particle.

For test [3], the system named is orthotopic MV4-11-GFP-Luc-bearing mice. As to the kind of experiment: Antitumor effect of A6-cPS-VCR in orthotopic AML model. The format is in vivo. As for the experimental part:
(§1) Construction of an in situ MV4-11-GFP-Luc acute myeloid leukemia mouse model: All animal experiments and operations were approved by the Experimental Animal Center of Soochow University and the Animal Care and Use Committee of Soochow University. […] Mice were first irradiated with X-rays (2.0 Gy), then the antibody CD122 (10 mg/kg mouse) was injected intraperitoneally, and 6 hours later, MV4-11-GFP-Luc cells (1×10^5 cells/mouse) injected into mice by tail vein. After inoculation, the proliferation and proliferation of leukemia cells in mice were observed by in vivo imaging of small animals (FIG. 12).
Antitumor effect of A6-cPS-VCR in orthotopic MV4-11-GFP-Luc-bearing mice: To study the antitumor effect of A6-cPS-VCR on orthotopic MV4-11-GFP-Luc bearing mice Tumor effect, the following treatment plan was designed (FIG. 14): the first injection was injected on the 6th day after the inoculation, which was counted as the 0th day, and the second injection was given on the 2nd day. The dose of VCR was 0.50 mg/kg, and the control group was injected with 100 µL PBS. There were 10 tumor-bearing mice in each group. […] Mice lose weight before dying. […] And cPS-VCR (11 days), prolonged 1.5-2.7 times.
In order to further accurately and quantitatively analyze the proliferation of leukemia cells in mice, on the 4th day, 3 mice in each group were randomly selected for dissection, and the leukocytes in the liver, spleen and bone marrow were extracted, and the content of leukemia cells was detected by flow cytometry. And the liver, spleen and bone marrow slices were analyzed to observe the damage.
Acute myeloid leukemia cells abnormally proliferate in the bone marrow of mice, resulting in osteolytic lesions in mice. Therefore, micro-CT was used to evaluate the relevant indexes of the femur of each group of mice.

Test [4] shares this test system. Kind of test: Antitumor effect of A6-cPS-DNR in orthotopic AML model. In kind it is in vivo. The settings on record: DNR 2 mg/kg. As for the experimental part: as §1
Antitumor effect of A6-cPS-DNR in orthotopic MV4-11-GFP-Luc-bearing mice: To study the antitumor effect of A6-cPS-DNR on orthotopic MV4-11-GFP-Luc-bearing mice Tumor effect (refer to Example 11 for the design scheme). The DNR dose was 2 mg/kg, and A6-cPS-DNR was increased by 3 mg/kg in a high-dose group. The blank control group was injected with 100 µL PBS. There were 3 tumor-bearing mice in each group.

Consider `CC[C@]1(O)C[C@H]2CN(CCc3c([nH]c4ccccc34)[C@@](C(=O)OC)(c3cc4c(cc3OC)N(C=O)[C@H]3[C@@](O)(C(=O)OC)[C@H](OC(C)=O)[C@]5(CC)C=CCN6CC[C@]43[C@@H]65)C2)C1` [VCR, vincristine sulfate], for which the proliferation inhibition result with YNH-1 and in the test on OCI-AML-3 was “no significant difference” throughout. Also, the apoptosis in the test on MV4-11 cells [1] is 16.7%. Besides, in the test with MV4-11 cells [2], the “effect on cell cycle” value was “arresting cells in G2/M phase”. Further, the “leukemia levels in the liver, spleen and bone marrow, flow cytometry” value in test [3] (4th day, 3 mice per group) was “reduced”. Also, in test [3] (VCR 0.50 mg/kg), the median survival time was 9 days. In addition, the “proliferation of MV4-11-GFP-Luc cells, bioluminescence imaging” value in test [3] (VCR 0.50 mg/kg, injections day 0 and day 2) is recorded as “proliferated slowly during drug administration, but proliferated rapidly after drug withdrawal”.

Regarding `COc1cccc2c1C(=O)c1c(O)c3c(c(O)c1C2=O)C[C@@](O)(C(C)=O)C[C@@H]3O[C@H]1C[C@H](N)[C@H](O)[C@H](C)O1` [DNR, daunorubicin], in test [4], the “fluorescence quantification, bioluminescence imaging” value is “decreased slightly”.
